The test system of one series is SBC-1 tumor. As to the kind of experiment: Nude mouse xenograft, small cell lung cancer line SBC-1, tumor growth (T/C). Particulars: Compound 1 28 mg/kg orally on Days 1, 3, 5, 8, 10, 12, amrubicin […] intravenously on first day, alone or combined; test end date. The series is classed as in vivo, nude mice.
The next series concerns NCI-H441 tumor. As to the kind of experiment: Nude mouse xenograft, NSCLC NCI-H441, tumor growth (T/C). Type of series: in vivo, nude mice. Particulars: Compound 1 5 mg/kg orally, paclitaxel 30 mg/kg intravenously on first day, alone or combined; test end date.
A short description of series [1]: Storage stability of Compound 1 suspension in 0.5% hypromellose aqueous solution. Conditions: stored in refrigerator. Type of series: physicochemical. The protocol: In order to administer Compound 1, a 0.5% hypromellose aqueous solution was prepared. Hypromellose was weighed in a beaker, and distilled water (Otsuka Pharmaceutical Factory, Inc.) was added thereto in an amount of about 80% of the preparation amount. The mixture was completely dissolved by being stirred overnight using a stirrer at a low-temperature chamber, the resultant solution was transferred to a measuring cylinder, and distilled water was added to dilute to the preparation amount. Compound 1 was weighed in a necessary amount, pulverized with an agate mortar, suspended with a 0.5% hypromellose aqueous solution to have a predetermined concentration, and then subjected to ultrasonic treatment, thereby obtaining a homogeneous suspension. 10 mL of this suspension was administered orally per kg of body weight. Incidentally, the suspension was stored in a refrigerator at times other than administration.

The subject of a further series is NCI-N87 tumor. As to the kind of experiment: Nude mouse xenograft, stomach cancer line NCI-N87, tumor growth (T/C). The series is classed as in vivo, nude mice. Particulars: Compound 1 5 mg/kg orally, cisplatin 7 mg/kg intravenously on first day, alone or combined; test end date.
The subject of a further series is NCI-H2170 tumor. As to the kind of experiment: Nude mouse xenograft, NSCLC NCI-H2170, tumor growth (T/C). Type of series: in vivo, nude mice. Particulars: Compound 1 5 mg/kg orally, docetaxel 15 mg/kg intravenously on first day, alone or combined; RTV ratio to control on test end date. Here is the method:
NCI-H2170 (ATCC #CRL-5928) as a human non-small cell lung cancer (NSCLC) cell line was obtained from American Type Culture Collection (ATCC; Manassas, Va., USA). In RPMI-1640 (containing 4.5 g/L of glucose, 10 mM of HEPES, and 1 mM of sodium pyruvate) (Wako Pure Chemical Industries, Ltd.) medium supplemented with 10% fetal bovine serum (FBS), cell lines were cultured. The cells cryopreserved in liquid nitrogen were quickly thawed at 37° C., transferred to a tissue culture flask containing a medium, and allowed to grow in a 5% CO2 incubator at 37° C. The NCI-H2170 cell lines were sub-cultured once to twice a week at a dilution ratio of 1:5 to 1:10. […]
Subsequently, the cell was allowed to grow for one to two weeks after transplantation until the tumor volume (TV) reached 100 to 300 mm^3. Digimatic Caliper was used in measurement of the tumor diameter, the major axis and the minor axis of the tumor were measured, and TV was calculated by the following formula. […]
Animals having an extremely small or large tumor volume were excluded and the remaining animals were allocated to each group by a stratified randomization allocation method using TV as an index. A relative tumor volume (RTV) was calculated from TV as an endpoint. […] RTV and T/C (%) were calculated by the following formula. […]

As to `CC(=O)[C@]1(N)Cc2c(O)c3c(c(O)c2[C@@H](O[C@H]2C[C@H](O)[C@H](O)CO2)C1)C(=O)c1ccccc1C3=O` [amrubicin, reference compound], the T/C value in the series with SBC-1 tumor was 40%.

Regarding `CC(=O)O[C@H]1C(=O)[C@@]2(C)[C@H]([C@H](OC(=O)c3ccccc3)[C@]3(O)C[C@H](OC(=O)[C@H](O)[C@@H](NC(=O)c4ccccc4)c4ccccc4)C(C)=C1C3(C)C)[C@]1(OC(C)=O)CO[C@@H]1C[C@@H]2O` [paclitaxel, reference compound], the T/C value in the series with NCI-H441 tumor came to 41%.

Regarding `CCc1cc(C(N)=O)ccc1-n1nc(C(C)C)c2c(-n3cnc(-c4cnn(C)c4)c3)ccnc21` [Compound 1, 3-ethyl-4-{3-isopropyl-4-(4-(1-methyl-1H-pyrazol-4-yl)-1H-imidazol-1-yl)-1H-pyrazolo[3,4-b]pyridin-1-yl}benzamide], the stability of suspension result in series [1] is on record as “refrigerator-stable for two weeks”. Further, the T/C value with NCI-H441 tumor came out at 63%; in the series with NCI-N87 tumor, 51%; in the series on SBC-1 tumor it was 49%; in the series with NCI-H2170 tumor, 72%. Take `N.N.[Cl][Pt][Cl]` [cisplatin, reference compound]: the T/C value in the series with NCI-N87 tumor is 65%. `CC(=O)O[C@@]12CO[C@@H]1C[C@H](O)[C@@]1(C)C(=O)[C@H](O)C3=C(C)[C@@H](OC(=O)[C@H](O)[C@@H](NC(=O)OC(C)(C)C)c4ccccc4)C[C@@](O)([C@@H](OC(=O)c4ccccc4)[C@H]21)C3(C)C` [docetaxel, reference compound]: in the series with NCI-H2170 tumor, the T/C value turned out to be 86%.

For the origin of these results see US10849886B2, “Combination therapy using azabicyclo compound for cancer” (TAIHO PHARMACEUTICAL CO., LTD., priority 2013, dated 2020).
